Data as given in ChEMBL document CHEMBL1125730, “Dual inhibitors of thromboxane A2 synthase and 5-lipoxygenase with scavenging activity of active oxygen species. Synthesis of a novel series of (3-pyridylmethyl)benzoquinone derivatives” (J Med Chem, 1991).

Experiments:
physchem = conditions: octanol/water
Description: Partition coefficient (logP)

[1] = target: T1, Thromboxane-A synthase (Rattus norvegicus) (UniProt P49430); test: Inhibition of rat thromboxane A2 synthase evaluated as percent inhibition of thromboxane B2 formation after 24 hr of administration at 10 mg/kg.; format: functional, organism-based; set-up: dose 10 mg/kg
T1 sequence (whole entry): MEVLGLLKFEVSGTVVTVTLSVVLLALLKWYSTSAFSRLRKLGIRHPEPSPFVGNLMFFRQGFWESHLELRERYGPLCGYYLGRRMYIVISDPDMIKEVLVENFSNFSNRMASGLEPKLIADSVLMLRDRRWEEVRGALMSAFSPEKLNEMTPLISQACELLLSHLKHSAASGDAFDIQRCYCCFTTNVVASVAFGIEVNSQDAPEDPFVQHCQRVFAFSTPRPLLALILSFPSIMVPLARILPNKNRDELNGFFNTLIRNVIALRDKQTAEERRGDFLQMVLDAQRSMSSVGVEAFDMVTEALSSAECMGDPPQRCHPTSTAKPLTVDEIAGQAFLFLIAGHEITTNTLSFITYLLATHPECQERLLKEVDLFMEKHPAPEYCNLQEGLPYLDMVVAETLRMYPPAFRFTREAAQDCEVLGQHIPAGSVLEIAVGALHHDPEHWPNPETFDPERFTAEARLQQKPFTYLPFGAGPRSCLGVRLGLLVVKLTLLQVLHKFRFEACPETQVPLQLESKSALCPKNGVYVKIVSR

[2] = target: T2, Polyunsaturated fatty acid 5-lipoxygenase (Rattus norvegicus, UniProt P12527)
T2 sequence (P12527 whole entry): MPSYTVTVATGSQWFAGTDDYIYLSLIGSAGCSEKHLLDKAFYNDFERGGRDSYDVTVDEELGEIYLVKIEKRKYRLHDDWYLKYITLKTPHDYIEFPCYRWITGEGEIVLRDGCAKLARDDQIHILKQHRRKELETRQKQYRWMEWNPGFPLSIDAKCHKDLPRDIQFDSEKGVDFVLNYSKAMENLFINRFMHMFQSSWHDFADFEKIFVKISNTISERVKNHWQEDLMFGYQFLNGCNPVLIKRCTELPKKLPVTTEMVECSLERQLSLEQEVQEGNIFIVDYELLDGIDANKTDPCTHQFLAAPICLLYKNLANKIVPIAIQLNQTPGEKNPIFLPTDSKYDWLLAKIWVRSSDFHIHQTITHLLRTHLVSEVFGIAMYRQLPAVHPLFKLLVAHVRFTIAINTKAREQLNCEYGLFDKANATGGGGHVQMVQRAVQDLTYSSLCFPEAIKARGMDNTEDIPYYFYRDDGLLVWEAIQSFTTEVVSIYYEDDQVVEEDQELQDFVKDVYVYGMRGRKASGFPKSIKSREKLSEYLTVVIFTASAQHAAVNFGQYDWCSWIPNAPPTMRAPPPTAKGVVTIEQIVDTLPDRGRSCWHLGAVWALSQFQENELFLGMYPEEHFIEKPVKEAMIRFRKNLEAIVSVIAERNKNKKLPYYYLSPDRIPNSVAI

Rattus norvegicus [3] = test: Protective effect was evaluated by measuring the urinary albumin by peroral administering 100 mg/kg per day for four weeks in adriamycin induced proteinuria 7 rats for four weeks.; format: functional, Urine; conditions: route oral
Rattus norvegicus [4] = test: Protective effect was evaluated by measuring the urinary total protein by peroral administering 100 mg/kg per day for four weeks in adriamycin induced proteinuria in 7 rats for four weeks.; format: functional, Urine; conditions: route oral
Equus caballus = species on record: Equus caballus; test: The concentration required to reduce by 50% the amount of LTB4 formed by RBL-1 cells; format: functional, organism-based
RBL-1 = test: cells; conditions: Rattus norvegicus
Rattus norvegicus [5] = test: Compound was evaluated […] for percent inhibition of lipid peroxidation in rat brain homogenates at 10e-6 M; format: functional
[6] = target: T3, Thromboxane-A synthase (Homo sapiens) (UniProt P24557); test: Inhibitory activity of compound against thromboxane A2 synthase evaluated as percent inhibition of thromboxane B2 formed by incubating PGH-2 with horse platelet microsomes; format: functional; conditions: Equus caballus; target entry is the homologue from another species; concentration not given here
T3 sequence (whole entry): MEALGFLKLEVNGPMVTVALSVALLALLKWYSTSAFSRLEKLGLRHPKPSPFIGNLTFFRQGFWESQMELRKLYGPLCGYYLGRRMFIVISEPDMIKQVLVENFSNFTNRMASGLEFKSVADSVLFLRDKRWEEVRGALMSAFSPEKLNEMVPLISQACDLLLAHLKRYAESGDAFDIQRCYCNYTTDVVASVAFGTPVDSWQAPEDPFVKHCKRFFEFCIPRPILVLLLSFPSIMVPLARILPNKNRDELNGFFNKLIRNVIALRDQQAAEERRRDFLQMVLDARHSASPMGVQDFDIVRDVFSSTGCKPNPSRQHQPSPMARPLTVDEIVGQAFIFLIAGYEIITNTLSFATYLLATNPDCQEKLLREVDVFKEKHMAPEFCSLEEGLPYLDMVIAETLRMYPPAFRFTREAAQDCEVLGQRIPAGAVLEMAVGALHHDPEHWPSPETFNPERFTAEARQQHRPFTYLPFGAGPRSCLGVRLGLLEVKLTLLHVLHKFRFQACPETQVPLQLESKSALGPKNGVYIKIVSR

Rattus norvegicus [7] = test: Protective effect was evaluated by measuring the urinary total protein by peroral administering 10 mg/kg per day for four weeks in 8 rats; format: functional, Urine; conditions: route oral
Rattus norvegicus [8] = test: Protective effect was evaluated by measuring the urinary albumin by peroral administering 10 mg/kg per day for four weeks in 8 rats; format: functional, Urine; conditions: route oral
[9] = target: T3, Thromboxane-A synthase (Homo sapiens); test: Inhibitory activity of compound against thromboxane A2 synthase evaluated as percent inhibition of thromboxane B2 formation after 24 hr of administration of 10 mg/kg of compound in rat; format: functional, organism-based; set-up: dose 10 mg/kg
Rattus norvegicus [10] = test: Protective effect was evaluated by measuring the urinary total protein by peroral administering 100 mg/kg per day for four weeks in 7 rats for four weeks.; format: functional, Urine; conditions: route oral

| SMILES | logP (physchem) | inhibition [1] [%] | IC50 [2] [nM] | also measured |
| --- | --- | --- | --- | --- |
| COC1=C(OC)C(=O)C(Cc2cccnc2)=C(C)C1=O | 0.61 | 74 |  |  |
| CC1=C(C)C(=O)C(C(CCCCCCC(=O)O)c2cccnc2)=C(C)C1=O (centres undefined) | 1.85 | 97 | 7000 |  |
| CCCCCCCCCCCCCCCCCCOC1=C(O)[C@@H](C(O)CO)OC1=O (some centres undefined) |  |  |  | Albumin (Rattus norvegicus [3]): 70 mg 100g-1 24hr-1; Total protein (Rattus norvegicus [4]): 122 mg 100g-1 24hr-1 |
| CCCCC/C=C(\C1=C(C)C(=O)C(C)=C(C)C1=O)c1cccnc1 | 5.05 |  |  | IC50 (Equus caballus): 220 nM |
| CCCCC/C=C(/C1=C(C)C(=O)C(C)=C(C)C1=O)c1cccnc1 | 5.05 |  |  | IC50 (RBL-1): 260 nM |
| CC1=C(/C=C(\C)C(=O)O)C(=O)C(C)=C(Cc2cccnc2)C1=O | -0.65 | 73 | 8700 |  |
| CC1=C(C)C(=O)C(C(CCCC(=O)O)c2cccnc2)=C(C)C1=O (centres undefined) | 0.35 |  |  | Inhibition (Rattus norvegicus [5]): 37%; IC50 (Equus caballus): 10000 nM |
| CC1=C(C)C(=O)C(C(c2cccnc2)c2cccc(CCC(=O)O)c2)=C(C)C1=O (centres undefined) | 2.08 |  | 100000 |  |
| CC1=C(C)C(=O)C(C(C)c2cccnc2)=C(C)C1=O (centres undefined) | 2.85 | 90 | 9500 | inhibition [6]: 89% |
| CC1=C(C)C(=O)C(C(c2cccnc2)c2cccc(/C=C(\C)C(=O)O)c2)=C(C)C1=O (centres undefined) | 2.08 | 19 | 100000 |  |
| CC1=C(C)C(=O)C(C(CCCCCC(=O)O)c2cccnc2)=C(C)C1=O (centres undefined) | 1.35 | 90 | 9300 |  |
| CC1=C(C)C(=O)C(C(CCCCC(=O)O)c2cccnc2)=C(C)C1=O (centres undefined) | 0.85 | 64 | 60000 |  |
| CC1=C(/C=C/C(=O)O)C(=O)C(C)=C(Cc2cccnc2)C1=O | -0.95 | 90 | 8800 |  |
| O=C(O)CCCC/C=C(\c1ccccc1)c1cccnc1 [(E)-ISBOGREL] |  | 90 |  | Albumin (Rattus norvegicus [3]): 75 mg 100g-1 24hr-1; Total protein (Rattus norvegicus [10]): 131 mg 100g-1 24hr-1 |
| CC1=C(C)C(=O)C(/C(=C/CCCCC(=O)O)c2cccnc2)=C(C)C1=O | 1.05 | 91 | 7200 |  |

Second part, led by results:

| logP (physchem) | inhibition [1] [%] | IC50 [2] [nM] | SMILES | also measured |
| --- | --- | --- | --- | --- |
| 5.35 | 70 | 73 | CCCCCCC(C1=C(C)C(=O)C(C)=C(C)C1=O)c1cccnc1 (centres undefined) |  |
| 4.35 | 97 | 830 | CCCCC(C1=C(C)C(=O)C(C)=C(C)C1=O)c1cccnc1 (centres undefined) |  |
| 3.19 | 40 | 100 | CC1=C(C)C(=O)C(C(CCCCO)c2cccnc2)=C(C)C1=O (centres undefined) |  |
|  |  | 90 | CC1=C(C)C(=O)C(CCCCC#CCCCC#CCO)=C(C)C1=O [DOCEBENONE] | Albumin (Rattus norvegicus [3]): 49 mg 100g-1 24hr-1; Total protein (Rattus norvegicus [4]): 95 mg 100g-1 24hr-1 |
| -0.65 | 86 | 5000 | CC1=C(CCC(=O)O)C(=O)C(C)=C(Cc2cccnc2)C1=O |  |
| 2.55 | 86 | 62 | CC1=C(C)C(=O)C(Cc2cccnc2)=C(C)C1=O | Total protein (Rattus norvegicus [7]): 60 mg 100g-1 24hr-1; Albumin (Rattus norvegicus [8]): 39 mg 100g-1 24hr-1 |
| 4.08 |  | 250 | CC(=O)OCCCCC(C1=C(C)C(=O)C(C)=C(C)C1=O)c1cccnc1 (centres undefined) | inhibition [9]: 37% |
| 2.77 | 92 | 82 | CC1=C(Cc2cccnc2)C(=O)c2ccccc2C1=O |  |
| 3.35 | 75 | 660 | CCC(C1=C(C)C(=O)C(C)=C(C)C1=O)c1cccnc1 (centres undefined) |  |
| 3.69 |  | 100 | CC1=C(C)C(=O)C(C(CCCCCO)c2cccnc2)=C(C)C1=O (centres undefined) | inhibition [9]: 72% |
| 4.58 |  | 87 | CC(=O)OCCCCCC(C1=C(C)C(=O)C(C)=C(C)C1=O)c1cccnc1 (centres undefined) | inhibition [9]: 84% |
| 3.28 | 80 | 8 | CCOC(=O)/C=C/C1=C(C)C(=O)C(Cc2cccnc2)=C(C)C1=O |  |
